In brackets after ≈: the same amount, converted by molar mass. Activity calls are given as the source filed them. The calls are words filed in the database; no cut-off is given here.
What was measured:
[1] = target: GABA-A receptor; anion channel (Rattus norvegicus) (UniProt O09028+P15431+P18506+P18508+P19969+P20236+P23574+P23576+P28471+P28473+P30191+P62813+P63079+P63138+Q91ZM7+Q9ES14); test: Displacement of [3H]muscimol from GABAA receptor in Wistar rat brain without cerebellum at 10 uM by displacement binding assay; assay type: tissue-based
[2] = Mutagenicity in Salmonella typhimurium TA1535 in absence of rat liver S9 fraction by AMES test; assay type: toxicity; conditions: salmonella enterica subsp. enterica serovar typhimurium
[3] = target: GABA-A receptor; alpha-1/beta-3/gamma-2 (Homo sapiens) (UniProt P14867+P18507+P28472); test: Inhibition of human alpha1beta3gamma2 GABAA receptor expressed in HEK293 cells assessed as inhibition of GABA induced channel current response at 1 to 10 uM measured after 7 to 10 mins at -80 mV holding potential by whole-cell patch clamp assay; assay type: cell-based; conditions: dose 1-10 µM, time 7-10 min
[4] = Ratio of drug level in Wistar rat brain to plasma at 10 mg/kg, ip measured after 35 mins by HPLC-MS/MS analysis; assay type: ADME, organism-based; conditions: read-out: BPR
[5] = Kinetic solubility of compound; assay type: physicochemical; conditions: read-out: Kinetic_solubility
[6] = Plasma concentration in NMRI mouse at 1 mg/kg, ip measured after 1 hr by HPLC-MS/MS analysis; assay type: ADME, organism-based
[7] = target: GABA-A receptor; alpha-5/beta-3/gamma-2 (Homo sapiens) (UniProt P18507+P28472+P31644); test: Inhibition of human alpha5beta3gamma2 GABAA receptor expressed in HEK293 cells assessed as inhibition of GABA induced channel current response at 1 to 10 uM measured after 7 to 10 mins at -80 mV holding potential by whole-cell patch clamp assay; assay type: cell-based; conditions: dose 1-10 µM, time 7-10 min
[8] = Ratio of drug level in NMRI mouse brain to plasma at 10 mg/kg, ip measured after 1 hr by HPLC-MS/MS analysis; assay type: ADME, organism-based; conditions: read-out: BPR
[9] = Mutagenicity in Salmonella typhimurium TA1537 in absence of rat liver S9 fraction by AMES test; assay type: toxicity; conditions: salmonella enterica subsp. enterica serovar typhimurium
[10] = Mutagenicity in Salmonella typhimurium TA1535 in presence of rat liver S9 fraction by AMES test; assay type: toxicity, subcellular; conditions: salmonella enterica subsp. enterica serovar typhimurium
[11] = target: T1, Glutamate NMDA receptor (Rattus norvegicus) (UniProt P35439+Q00959+Q00960+Q00961+Q62645+Q8VHN2+Q9R1M7); test: Displacement of [3H]MDL105519 from NMDA receptor in Wistar rat cerebral cortex at 10 uM by displacement binding assay; assay type: tissue-based
[12] = target: Voltage-gated inwardly rectifying potassium channel KCNH2 (Homo sapiens, UniProt Q12809); test: Inhibition of human ERG channel expressed in CHO cells measured after 7 to 10 mins at -80 mV holding potential by whole cell patch clamp assay; assay type: cell-based
[13] = target: T1, Glutamate NMDA receptor (Rattus norvegicus); test: Displacement of [3H]TCP from NMDA receptor in Wistar rat cerebral cortex at 10 uM by displacement binding assay; assay type: tissue-based
[14] = Apparent permeability across apical to basolateral side in vinblastine-treated human Caco-2 cells expressing P-glycoprotein at 10 uM incubated for 120 mins by HPLC analysis; assay type: ADME
[15] = Plasma concentration in Wistar rat at 1 mg/kg, ip measured after 35 mins by HPLC-MS/MS analysis; assay type: ADME, organism-based
[16] = Plasma concentration in Wistar rat at 3 mg/kg, ip measured after 35 mins by HPLC-MS/MS analysis; assay type: ADME, organism-based
[17] = Ratio of drug level in NMRI mouse brain to plasma at 3 mg/kg, ip measured after 1 hr by HPLC-MS/MS analysis; assay type: ADME, organism-based; conditions: read-out: BPR
[18] = Drug uptake in Wistar rat brain at 1 mg/kg, ip measured after 35 mins by HPLC-MS/MS analysis; assay type: ADME, organism-based; conditions: read-out: Ct
Mus musculus = test: Cognitive enhancing effect in scopolamine-induced amnesia NMRI mouse model assessed as increase in recognition index at 1 to 10 mg/kg, ip administered 30 mins prior to scopolamine injection by Y-maze test; assay type: functional, organism-based; conditions: dose 1-10 mg/kg
[19] = Mutagenicity in Escherichia coli WP2 uvrA in absence of rat liver S9 fraction by AMES test; assay type: toxicity
[20] = Ratio of drug level in NMRI mouse brain to plasma at 0.3 mg/kg, ip measured after 1 hr by HPLC-MS/MS analysis; assay type: ADME, organism-based; conditions: read-out: BPR
Rattus norvegicus = test: Cognitive enhancing effect in Hannover Wistar rat assessed as increase in novel object recognition index at 1 to 10 mg/kg, po administered 30 mins prior to recognition trail by novel object recognition test; assay type: functional, organism-based; conditions: dose 1-10 mg/kg
[21] = Ratio of drug level in NMRI mouse brain to plasma at 1 mg/kg, ip measured after 1 hr by HPLC-MS/MS analysis; assay type: ADME, organism-based; conditions: read-out: BPR
[22] = target: T2, 5-hydroxytryptamine receptor 3A (Homo sapiens) (UniProt P46098); test: Displacement of [3H]GR65630 from human 5-HT3 receptor expressed in HEK293 cells at 10 uM by displacement binding assay; assay type: cell-based
T2 sequence (whole entry): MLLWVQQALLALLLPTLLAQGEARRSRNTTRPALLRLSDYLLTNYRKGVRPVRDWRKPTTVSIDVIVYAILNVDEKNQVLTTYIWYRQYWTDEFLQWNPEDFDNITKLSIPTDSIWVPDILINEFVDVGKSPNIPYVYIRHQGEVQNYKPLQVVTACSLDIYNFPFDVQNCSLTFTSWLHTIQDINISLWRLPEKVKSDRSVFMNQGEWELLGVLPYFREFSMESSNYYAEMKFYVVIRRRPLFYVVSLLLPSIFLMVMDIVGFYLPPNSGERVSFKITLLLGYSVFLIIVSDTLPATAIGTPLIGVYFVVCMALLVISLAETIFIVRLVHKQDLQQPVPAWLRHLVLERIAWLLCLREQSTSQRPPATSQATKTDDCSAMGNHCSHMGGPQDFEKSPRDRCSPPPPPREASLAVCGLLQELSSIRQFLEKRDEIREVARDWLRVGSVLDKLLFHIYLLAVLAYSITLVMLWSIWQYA

[23] = Metabolic stability in NMRI mouse liver microsomes assessed as intrinsic clearance at 1 uM measured per mg protein upto 40 mins; assay type: ADME, Microsome; conditions: read-out: CLH

Voltage-gated inwardly rectifying potassium channel KCNH2, sequence (Q12809 whole entry): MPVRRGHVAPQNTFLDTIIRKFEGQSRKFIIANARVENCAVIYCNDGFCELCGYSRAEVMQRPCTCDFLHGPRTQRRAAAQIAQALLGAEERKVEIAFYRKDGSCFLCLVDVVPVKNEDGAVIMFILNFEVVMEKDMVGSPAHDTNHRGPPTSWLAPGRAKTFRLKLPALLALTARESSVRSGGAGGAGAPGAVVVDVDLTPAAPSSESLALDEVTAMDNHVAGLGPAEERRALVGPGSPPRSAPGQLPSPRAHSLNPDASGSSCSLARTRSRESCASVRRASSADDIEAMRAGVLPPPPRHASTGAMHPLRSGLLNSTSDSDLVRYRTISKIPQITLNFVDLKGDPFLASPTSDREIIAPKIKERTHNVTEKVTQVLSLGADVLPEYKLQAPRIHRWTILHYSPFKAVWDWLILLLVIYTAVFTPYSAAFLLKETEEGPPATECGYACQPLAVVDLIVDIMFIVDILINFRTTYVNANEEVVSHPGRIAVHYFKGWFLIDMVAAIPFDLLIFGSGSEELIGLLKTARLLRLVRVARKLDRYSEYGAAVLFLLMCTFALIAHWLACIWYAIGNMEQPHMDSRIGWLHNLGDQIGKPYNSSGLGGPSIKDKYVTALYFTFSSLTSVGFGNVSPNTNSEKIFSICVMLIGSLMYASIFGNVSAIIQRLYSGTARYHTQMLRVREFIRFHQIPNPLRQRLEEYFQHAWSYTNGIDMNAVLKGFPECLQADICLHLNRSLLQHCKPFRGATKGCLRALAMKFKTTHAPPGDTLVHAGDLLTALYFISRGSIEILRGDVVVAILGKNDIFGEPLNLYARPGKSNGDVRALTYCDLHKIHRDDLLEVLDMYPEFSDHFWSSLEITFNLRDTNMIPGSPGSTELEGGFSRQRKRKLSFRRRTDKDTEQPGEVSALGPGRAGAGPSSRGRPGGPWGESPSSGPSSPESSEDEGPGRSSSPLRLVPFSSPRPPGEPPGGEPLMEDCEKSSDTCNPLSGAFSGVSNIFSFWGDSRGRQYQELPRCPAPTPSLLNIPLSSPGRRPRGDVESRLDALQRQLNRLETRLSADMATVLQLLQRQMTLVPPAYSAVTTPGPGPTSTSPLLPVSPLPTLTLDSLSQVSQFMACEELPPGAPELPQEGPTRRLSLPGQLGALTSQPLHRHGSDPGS

inhibition [1]: < 15%
inhibition [3]: < 7%
Kp at 35 min [4]: 4.01
solubility kinetic [5]: 41.6 µM (≈ 16.2 µg/mL)
concentration at 1 h [6]: 21 nM
inhibition [7]: < 7%
Kp at 1 h [8]: 1.67
inhibition [11]: < 15%
inhibition [13]: < 15%
Papp A→B at 2 h, 10 µM [14]: 30.7 ×10⁻⁶ cm/s
concentration at 35 min [15]: 28 nM
concentration at 35 min [16]: 54 nM
Kp at 1 h [17]: 1.68
concentration at 35 min [18]: 135 nM
Kp at 1 h [20]: 1.22
Kp at 1 h [21]: 1.88
inhibition [22]: < 15%
microsomal CLint at 1 µM [23]: 55 µL/min/mg
Compound: Cc1ccc(CN2CCN(C(=O)C(=O)Nc3ccc4c(ccn4C)c3)CC2)cc1
Activity [2]: Non-Toxic
Activity [9]: Non-Toxic
Activity [10]: Non-Toxic
IC50 [12]: 7.5 µM
Activity (Mus musculus): Active
Activity [19]: Non-Toxic
Activity (Rattus norvegicus): inactive

— ChEMBL document CHEMBL4825686, “HTS-based discovery and optimization of novel positive allosteric modulators of the α7 nicotinic acetylcholine receptor” (Eur J Med Chem, 2021)
